Data: US11364242B2, “Treatment agents for inhibiting HIV and cancer in HIV infected patients” (UNIVERSITY OF MARYLAND, BALTIMORE, priority 2015, dated 2022)
“Also recorded” adds a separate entry of the source.

How the values were obtained:
R5 HIV BaL = experiment: PBL infectivity assay, p24 ELISA day 7; assay type: cell-based, HIV-1; details: Human immunodeficiency virus 1, BAL; PBLs from three donors
Source text: (§1) PBLs were isolated from buffy coats of HIV seronegative donors (New York Blood Center). The laboratory-adapted strains HIV BaL and HIV HXB2; primary isolates HIV 92BR020, 92UG031, 93BR029, and 93UG082; and multidrug resistant molecular clone NL4329129-2 were obtained from the NIH AIDS Repository. Primary isolate 2044 was from Paul Clapham (Windeyer Institute), and 1633 and 1638 from the Institute of Human Virology (University of Maryland School of Medicine). Maraviroc, efavirenz, raltegravir, and indinavir were from the NIH AIDS Repository. INK128 was purchased from ApexBio. Proliferation of PBLs was measured by the MTT kit (Roche), following the manufacturer's directions. PBL infectivity assays were performed as described herein.
(§2) PBLs were separated from buffy coats by density centrifugation over Ficoll-Hypaque (Sigma™), and activated by culture in the presence of 1 μg/mL anti-human CD3 antibody (clone x35, Fisher Scientific™) and 2 μg/mL anti-human CD28 antibody (Clone CD28.6, eBioscience™) for 3 days. Activated cells were infected by incubation with virus at a multiplicity of infection (MOI) of 0.001 for 2 hours. […] On day 7, viral replication was measured by p24 ELISA (Coulter) in culture supernatants and cell viability was measured by MTT assays.
(§3) EC50 values were determined by variable slope nonlinear regression analysis. […]

X4 HIV HXB2 = experiment: PBL infectivity assay, p24 ELISA day 7; assay type: cell-based, HIV-1; details: Human immunodeficiency virus 1, HXB2; PBLs from three donors
Source text: as §1, §2, §3

HIV-1 1633 = experiment: PBL infectivity assay, primary isolate; assay type: cell-based; details: Human immunodeficiency virus 1, PBMC; X4 primary isolate, PBMCs, three donors; read-out: Geometric mean INK128 EC50, nM (95% CI)
Source text: as §1
(§4) PBLs were separated from buffy coats by density centrifugation over Ficoll-Hypaque (Sigma™), and activated by culture in the presence of 1 μg/mL anti-human CD3 antibody (clone x35, Fisher Scientific™) and 2 μg/mL anti-human CD28 antibody (Clone CD28.6, eBioscience™) for 3 days. Activated cells were infected by incubation with virus at a multiplicity of infection (MOI) of 0.001 for 2 hours. Infected cells were washed three times with PBS and cultured in 5% CO2 at 37° C., in RPMI/10% FBS supplemented with 100 units/mL IL-2 (Roche™) and antiviral drugs, in 96-well flat-bottom plates at a density of […] PBLs per 200 μL. Following 3 d of culture, half of the medium was replaced with fresh medium containing IL-2 and antiviral drugs. On day 7, viral replication was measured by p24 ELISA (Coulter) in culture supernatants and cell viability was measured by MTT assays.
(§5) EC50 values were determined by variable slope nonlinear regression analysis. Unpaired two-tailed t tests were used to check for statistical significant differences between INK128 EC50 values of R5 HIV versus X4 HIV in infectivity assays. Nonparametric Mann-Whitney tests were used to compare each treatment group and control group in animal studies. Statistical analyses were performed using GraphPad Prism™ (version 4.0). P<0.05 was considered significant.
(§6) The antiviral activity of INK128 was investigated in PBLs infected with CCR5 (R5)-tropic and CXCR4 (X4)-tropic HIV reference strains BaL and HXB2, respectively.

HIV-1 1638 = experiment: PBL infectivity assay, primary isolate; assay type: cell-based; details: Human immunodeficiency virus 1, PBMC; X4 primary isolate, PBMCs, three donors; read-out: Geometric mean INK128 EC50, nM (95% CI)
Source text: as §1, §4, §5, §6

HIV-1 2044 = experiment: PBL infectivity assay, primary isolate; assay type: cell-based; details: Human immunodeficiency virus 1, PBMC; X4 primary isolate, PBMCs, three donors; read-out: Geometric mean INK128 EC50, nM (95% CI)
Source text: as §1, §4, §5, §6

HIV-1 92BR020 = experiment: PBL infectivity assay, primary isolate; assay type: cell-based; details: Human immunodeficiency virus 1, PBMC; R5 primary isolate, PBMCs, three donors; read-out: Geometric mean INK128 EC50, nM (95% CI)
Source text: as §1, §4, §5, §6

HIV-1 92UG031 = experiment: PBL infectivity assay, primary isolate; assay type: cell-based; details: Human immunodeficiency virus 1, PBMC; R5 primary isolate, PBMCs, three donors; read-out: Geometric mean INK128 EC50, nM (95% CI)
Source text: as §1, §4, §5, §6

HIV-1 93BR029 = experiment: PBL infectivity assay, primary isolate; assay type: cell-based; details: Human immunodeficiency virus 1, PBMC; R5 primary isolate, PBMCs, three donors; read-out: Geometric mean INK128 EC50, nM (95% CI)
Source text: as §1, §4, §5, §6

HIV-1 93UG082 = experiment: PBL infectivity assay, primary isolate; assay type: cell-based; details: Human immunodeficiency virus 1, PBMC; R5 primary isolate, PBMCs, three donors; read-out: Geometric mean INK128 EC50, nM (95% CI)
Source text: as §1, §4, §5, §6

[1] = tested on: multidrug-resistant HIV molecular clone NL4329129-2; experiment: PBL infectivity assay, multidrug resistant clone; assay type: cell-based; details: Human immunodeficiency virus 1, 168 h
Experimental: FIG. 2A-2B are bar graphs that illustrate how INK128 inhibits replication of multidrug resistant HIV molecular clone NL4329129-2. Activated PBLs were infected for 2 hours using a MOI of 0.001. Infected cells were cultured in IL-2 medium and the indicated concentrations of INK128. On day 7, virus production was measured by p24 ELISA in the culture supernatants (FIG. 2A), and cell viability was measured by MTT (FIG. 2B) according to an embodiment.
PBLs were isolated from buffy coats of HIV seronegative donors (New York Blood Center). The laboratory-adapted strains HIV BaL and HIV HXB2; primary isolates HIV 92BR020, 92UG031, 93BR029, and 93UG082; and multidrug resistant molecular clone NL4329129-2 were obtained from the NIH AIDS Repository. […] Proliferation of PBLs was measured by the MTT kit (Roche), following the manufacturer's directions. […]
as §2, with “days.” for “days. Activated cells were infected by incubation with virus at a multiplicity of infection (MOI) of 0.001 for 2 hours.”
as §3

HIV-1 BaL = experiment: Antiretroviral potency with and without INK128 in PBLs infected with HIV BaL; assay type: cell-based; details: two donors
Experimental: as §4
Available ARTs target the HIV lifecycle steps of entry, reverse transcription, integration, and maturation. […] In addition, by targeting virus transcription, INK128 could have favorable interactions with inhibitors of reverse transcription (RTIs), integration (Hs), and protease (PIs). […] We conducted these assays in activated PBLs infected with R5 HIV BaL and treated with various dilutions of Maraviroc (CCR5 antagonist), Efavirenz (RTI), Raltegravir (II), and Indinavir (PI). INK128 was used at low concentrations (<EC50) to better detect changes in ART potency (Table 7).
Prism software. Data are from 2 experiments, each with a different donor.

CCR5 = experiment: Flow cytometry quantitation of surface receptor on PBLs; details: IL-2, 7 days, three donors
[2] = Tolerability in huPBL-NSG mice (body weight, wasting, death)

Q: For `CC(C)n1nc(-c2ccc3oc(N)nc3c2)c2c(N)ncnc21` [INK128, 5-(4-amino-1-propan-2-ylpyrazolo[3,4-d]pyrimidin-3-yl)-1,3-benzoxazol-2-amine], which EC50 (R5 HIV BaL) is on record?
A: Its EC50 is 10.5 nM.

Q: What about the EC50 (X4 HIV HXB2) of the same molecule?
A: The EC50 was 38 nM.

Q: And the EC50 (HIV-1 1633)?
A: The EC50 was 17.5 nM.

Q: What about the EC50 (HIV-1 1638) of the same molecule?
A: The EC50 was 21.2 nM.

Q: And the EC50 (HIV-1 2044)?
A: Its EC50 is 36.7 nM.

Q: What about the EC50 (HIV-1 92BR020) of the same molecule?
A: Its EC50 is 1.03 nM.

Q: And the EC50 (HIV-1 92UG031)?
A: Its EC50 is 10.2 nM.

Q: And the EC50 (HIV-1 93BR029)?
A: The EC50 was 4.73 nM.

Q: What about the EC50 (HIV-1 93UG082) of the same molecule?
A: Its EC50 is 2.89 nM.

Q: What about the EC50 [1] of the same molecule?
A: The EC50 was 10.9 nM.

Q: What about the “effect on the potency of the other tested ARTs (Efavirenz, Raltegravir, Indinavir)” value (HIV-1 BaL) of the same molecule?
A: Its value is “no negative effect”.

Q: And the “enhancement of the antiviral potency of Maraviroc” value (HIV-1 BaL)?
A: The value was “five- to six fold”.

Q: What about the “percentages of CCR5 expressing cells” value (CCR5; CD4+ and CD8+ T cell subsets) of the same molecule?
A: The value was “reduced”.

Q: What about the “CCR5 receptor density (molecules/cell)” value (CCR5) of the same molecule?
A: The value was “decreased”.

Q: What about the “effect on weight of the animals” value ([2]; 1-5 mg/kg once daily i.p. for 14 days) of the same molecule?
A: Its value is “no adverse effects; also recorded: without obvious toxicity”.

Q: And the “toxicity in pilot experiment” value ([2]; uninfected huPBL-NSG mice, 7 mg/kg daily i.p. for 2 wk)?
A: Its value is “wasting and death”.
